Test results taken from patent US20060241175A1, “Vehicle for topical delivery of anti-inflammatory compounds” (priority 2002, published 2006).
≈ marks a conversion by molar mass, not a printed value. Read-outs that look alike come from different tables or passages of the source.

How the values were obtained:
physchem = conditions: organic solvent or mixture, thermodynamic from solid
[1] = in olive or corn oil; cited from earlier work

| solubility (physchem; maximum solubility) [mg/mL] | solubility (physchem; solubility) [mg/mL] | SMILES | solubility [1] |
| --- | --- | --- | --- |
| 160 (≈ 447 mM) |  | COc1ccc2c(c1)c(CC(=O)O)c(C)n2C(=O)c1ccc(Cl)cc1 [Indomethacin] | below 0.2% |
|  | 2.9 to 3.2 (≈ 8.75 to 9.66 mM) | CN1C(C(=O)Nc2ccccn2)=C(O)c2ccccc2S1(=O)=O [Piroxicam] | below 0.05% |
